Measured values as given in US20260262643A1, “HERBICIDAL BENZOXAZINES” (FMC CORPORATION, priority 2022, published 2026).

Columns and labels:
barnyardgrass [1] = experiment: Test C preemergence; format: in vivo, Echinochloa crusgalli; details: for Barnyardgrass plant response rating: preemergence, 0 to 100 scale (0 no effect, 100 complete control)
Method in brief: (§1)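 Test material, in non-phytotoxic solvent with surfactant, was sprayed on the soil directly after seeding (preemergence) or on young plants of 2–10 cm with one to two leaves (postemergence). Greenhouse, 10 days; 0–100 visual control scale.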

blackgrass [2] = experiment: Test C preemergence; format: in vivo, Alopecurus myosuroides; details: for Blackgrass plant response rating: 500 g ai/ha, preemergence, 0 to 100 scale (0 no effect, 100 complete control)
Method in brief: as §1

corn [3] = experiment: Test C preemergence; format: in vivo, Zea mays; details: for Corn plant response rating: preemergence, 0 to 100 scale (0 no effect, 100 complete control)
Method in brief: as §1

green foxtail [4] = experiment: Test C preemergence; format: in vivo, Setaria viridis; details: for Foxtail, Green plant response rating: preemergence, 0 to 100 scale (0 no effect, 100 complete control)
Method in brief: as §1

kochia [5] = experiment: Test C preemergence; format: in vivo, Bassia scoparia; details: for Kochia plant response rating: preemergence, 0 to 100 scale (0 no effect, 100 complete control)
Method in brief: as §1

oat, wild [6] = experiment: Test C preemergence; format: in vivo, Avena fatua; details: for Oat, Wild plant response rating: preemergence, 0 to 100 scale (0 no effect, 100 complete control)
Method in brief: as §1

pigweed, palmer [7] = experiment: Test C preemergence; format: in vivo, Amaranthus palmeri; details: for Pigweed, Palmer plant response rating: preemergence, 0 to 100 scale (0 no effect, 100 complete control)
Method in brief: as §1

ragweed [8] = experiment: Test C preemergence; format: in vivo, Ambrosia artemisiifolia; details: for Ragweed plant response rating: preemergence, 0 to 100 scale (0 no effect, 100 complete control)
Method in brief: as §1

ryegrass, Italian [9] = experiment: Test C preemergence; format: in vivo, Lolium multiflorum; details: for Ryegrass, Italian plant response rating: preemergence, 0 to 100 scale (0 no effect, 100 complete control)
Method in brief: as §1

soybean [10] = experiment: Test C preemergence; format: in vivo, Glycine max; details: for Soybean plant response rating: preemergence, 0 to 100 scale (0 no effect, 100 complete control)
Method in brief: as §1

wheat [11] = experiment: Test C preemergence; format: in vivo, Triticum aestivum; details: for Wheat plant response rating: preemergence, 0 to 100 scale (0 no effect, 100 complete control)
Method in brief: as §1

barnyardgrass [12] = experiment: Test C postemergence; format: in vivo, Echinochloa crusgalli; details: 10 days, 0 to 100 scale (0 no effect, 100 complete control)
Method in brief: as §1

blackgrass [13] = experiment: Test C postemergence; format: in vivo, Alopecurus myosuroides; details: 10 days, 0 to 100 scale (0 no effect, 100 complete control)
Method in brief: as §1

corn [14] = experiment: Test C postemergence; format: in vivo, Zea mays; details: 10 days, 0 to 100 scale (0 no effect, 100 complete control)
Method in brief: as §1

green foxtail [15] = experiment: Test C postemergence; format: in vivo, Setaria viridis; details: 10 days, 0 to 100 scale (0 no effect, 100 complete control)
Method in brief: as §1

kochia [16] = experiment: Test C postemergence; format: in vivo, Bassia scoparia; details: 10 days, 0 to 100 scale (0 no effect, 100 complete control)
Method in brief: as §1

oat, wild [17] = experiment: Test C postemergence; format: in vivo, Avena fatua; details: 10 days, 0 to 100 scale (0 no effect, 100 complete control)
Method in brief: as §1

pigweed, palmer [18] = experiment: Test C postemergence; format: in vivo, Amaranthus palmeri; details: 10 days, 0 to 100 scale (0 no effect, 100 complete control)
Method in brief: as §1

ragweed [19] = experiment: Test C postemergence; format: in vivo, Ambrosia artemisiifolia; details: 10 days, 0 to 100 scale (0 no effect, 100 complete control)
Method in brief: as §1

ryegrass, Italian [20] = experiment: Test C postemergence; format: in vivo, Lolium multiflorum; details: 10 days, 0 to 100 scale (0 no effect, 100 complete control)
Method in brief: as §1

soybean [21] = experiment: Test C postemergence; format: in vivo, Glycine max; details: 10 days, 0 to 100 scale (0 no effect, 100 complete control)
Method in brief: as §1

wheat [22] = experiment: Test C postemergence; format: in vivo, Triticum aestivum; details: 10 days, 0 to 100 scale (0 no effect, 100 complete control)
Method in brief: as §1

galium = experiment: Test C postemergence; format: in vivo, Galium aparine; details: 10 days, 0 to 100 scale (0 no effect, 100 complete control)
Method in brief: as §1

horseweed = experiment: Test C postemergence; format: in vivo, Erigeron canadensis; details: 10 days, 0 to 100 scale (0 no effect, 100 complete control)
Method in brief: as §1

barnyardgrass [23] = experiment: Test D flooded paddy test; format: in vivo, Echinochloa crus-galli; details: 250 g ai/ha, applied to paddy water, visual rating after 13 to 14 days, scale 0 to 100 (0 no effect, 100 complete control)
Method in brief: (§2)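 Post-flood water application at the 2-leaf stage; 3 cm flood depth kept constant; visual control rating 0–100 after 13–14 days greenhouse growth.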

ducksalad = experiment: Test D flooded paddy test; format: in vivo, Heteranthera limosa; details: 250 g ai/ha, applied to paddy water, visual rating after 13 to 14 days, scale 0 to 100 (0 no effect, 100 complete control)
Method in brief: as §2

rice = experiment: Test D flooded paddy test; format: in vivo, Oryza sativa; details: 250 g ai/ha, applied to paddy water, visual rating after 13 to 14 days, scale 0 to 100 (0 no effect, 100 complete control)
Method in brief: as §2

sedge, umbrella = experiment: Test D flooded paddy test; format: in vivo, Cyperus difformis; details: 250 g ai/ha, applied to paddy water, visual rating after 13 to 14 days, scale 0 to 100 (0 no effect, 100 complete control)
Method in brief: as §2

[24] = Preemergence, 125 g ai/ha, 0 to 100 scale, 0 no effect, 100 complete control

COC[C@H]1CN(C(=O)c2cc(-n3cnc(C4CCC4)n3)cc3c2OCCO3)c2cccc(Cl)c2O1 [Compound 380]
0: Plant response rating, Blackgrass (blackgrass [2]; [24]) | Plant response rating, Corn (corn [3]; [24]) | Plant response rating, Kochia (kochia [5]; [24]) | Plant response rating, Wheat (wheat [11]; [24]) | Plant response rating, Oat, Wild (oat, wild [17]; 500 g ai/ha, postemergence) | Plant response rating, Oat, Wild (oat, wild [17]; Postemergence, 125 g ai/ha)
20: Plant response rating, Barnyardgrass (barnyardgrass [1]; [24]) | Plant response rating, Oat, Wild (oat, wild [6]; [24]) | Plant response rating, Barnyardgrass (barnyardgrass [12]; Postemergence, 125 g ai/ha) | Plant response rating, Blackgrass (blackgrass [13]; Postemergence, 125 g ai/ha) | Plant response rating, Foxtail, Green (green foxtail [15]; Postemergence, 125 g ai/ha) | Plant response rating, Wheat (wheat [22]; 500 g ai/ha, postemergence)
90: Kochia plant response rating (kochia [5]; 500 g ai/ha) | Ragweed plant response rating (ragweed [8]; 500 g ai/ha) | Soybean plant response rating (soybean [10]; 500 g ai/ha) | Plant response rating, Pigweed, Palmer (pigweed, palmer [18]; Postemergence, 125 g ai/ha) | Plant response rating, Ragweed (ragweed [19]; Postemergence, 125 g ai/ha)
60: Plant response rating, Ryegrass, Italian (ryegrass, Italian [20]; 500 g ai/ha, postemergence) | Plant response rating, Horseweed (horseweed; 500 g ai/ha, postemergence) | Plant response rating, Horseweed (horseweed; Postemergence, 125 g ai/ha)
10: Wheat plant response rating (wheat [11]; 500 g ai/ha) | Plant response rating, Corn (corn [14]; Postemergence, 125 g ai/ha) | Plant response rating, Wheat (wheat [22]; Postemergence, 125 g ai/ha) | Plant response rating, Rice (Flood) (rice)
40: Oat, Wild plant response rating (oat, wild [6]; 500 g ai/ha) | Plant response rating, Ryegrass, Italian (ryegrass, Italian [20]; Postemergence, 125 g ai/ha) | Plant response rating, Sedge, Umbrella (Flood) (sedge, umbrella)
100: Foxtail, Green plant response rating (green foxtail [4]; 500 g ai/ha) | Pigweed, Palmer plant response rating (pigweed, palmer [7]; 500 g ai/ha) | Plant response rating, Pigweed, Palmer (pigweed, palmer [7]; [24]) | Plant response rating, Kochia (kochia [16]; 500 g ai/ha, postemergence) | Plant response rating, Kochia (kochia [16]; Postemergence, 125 g ai/ha) | Plant response rating, Pigweed, Palmer (pigweed, palmer [18]; 500 g ai/ha, postemergence) | Plant response rating, Ragweed (ragweed [19]; 500 g ai/ha, postemergence) | Plant response rating, Soybean (soybean [21]; 500 g ai/ha, postemergence) | Plant response rating, Soybean (soybean [21]; Postemergence, 125 g ai/ha) | Plant response rating, Galium (galium; 500 g ai/ha, postemergence) | Plant response rating, Galium (galium; Postemergence, 125 g ai/ha)
80: Barnyardgrass plant response rating (barnyardgrass [1]; 500 g ai/ha) | Ryegrass, Italian plant response rating (ryegrass, Italian [9]; 500 g ai/ha) | Plant response rating, Foxtail, Green (green foxtail [15]; 500 g ai/ha, postemergence)
55: Plant response rating, Barnyardgrass (Flood) (barnyardgrass [23])
30: Blackgrass plant response rating (blackgrass [2]) | Plant response rating, Ducksalad (Flood) (ducksalad)
50: Corn plant response rating (corn [3]; 500 g ai/ha) | Plant response rating, Foxtail, Green (green foxtail [4]; [24]) | Plant response rating, Soybean (soybean [10]; [24]) | Plant response rating, Barnyardgrass (barnyardgrass [12]; 500 g ai/ha, postemergence) | Plant response rating, Corn (corn [14]; 500 g ai/ha, postemergence)
70: Plant response rating, Ragweed (ragweed [8]; [24]) | Plant response rating, Ryegrass, Italian (ryegrass, Italian [9]; [24]) | Plant response rating, Blackgrass (blackgrass [13]; 500 g ai/ha, postemergence)

Cc1cccc2c1O[C@@H](C)CN2C(=O)c1cccc(-n2cnc([N+](=O)[O-])n2)c1 [Compound 306]
20: Ragweed plant response rating (ragweed [8]; 500 g ai/ha) | Ragweed plant response rating (ragweed [8]; Test C, 125 g ai/ha) | Plant response rating, Pigweed, Palmer (pigweed, palmer [18]; 500 g ai/ha, postemergence)
10: Pigweed, Palmer plant response rating (pigweed, palmer [7]; 500 g ai/ha) | Plant response rating, Barnyardgrass (barnyardgrass [12]; 500 g ai/ha, postemergence) | Plant response rating, Barnyardgrass (barnyardgrass [12]; Postemergence, 125 g ai/ha) | Plant response rating, Blackgrass (blackgrass [13]; 500 g ai/ha, postemergence) | Plant response rating, Corn (corn [14]; 500 g ai/ha, postemergence) | Plant response rating, Kochia (kochia [16]; 500 g ai/ha, postemergence) | Plant response rating, Kochia (kochia [16]; Postemergence, 125 g ai/ha) | Plant response rating, Wheat (wheat [22]; 500 g ai/ha, postemergence)
30: Ryegrass, Italian plant response rating (ryegrass, Italian [9]; Test C, 125 g ai/ha) | Plant response rating, Foxtail, Green (green foxtail [15]; Postemergence, 125 g ai/ha) | Plant response rating, Ragweed (ragweed [19]; Postemergence, 125 g ai/ha) | Plant response rating, Soybean (soybean [21]; Postemergence, 125 g ai/ha) | Plant response rating, Galium (galium; Postemergence, 125 g ai/ha) | Plant response rating, Horseweed (horseweed; Postemergence, 125 g ai/ha)
90: Plant response rating, Soybean (soybean [21]; 500 g ai/ha, postemergence)
0: Barnyardgrass plant response rating (barnyardgrass [1]; 500 g ai/ha) | Barnyardgrass plant response rating (barnyardgrass [1]; Test C, 125 g ai/ha) | Blackgrass plant response rating (blackgrass [2]) | Corn plant response rating (corn [3]; 500 g ai/ha) | Corn plant response rating (corn [3]; Test C, 125 g ai/ha) | Foxtail, Green plant response rating (green foxtail [4]; Test C, 125 g ai/ha) | Kochia plant response rating (kochia [5]; 500 g ai/ha) | Kochia plant response rating (kochia [5]; Test C, 125 g ai/ha) | Oat, Wild plant response rating (oat, wild [6]; 500 g ai/ha) | Oat, Wild plant response rating (oat, wild [6]; Test C, 125 g ai/ha) | Pigweed, Palmer plant response rating (pigweed, palmer [7]; Test C, 125 g ai/ha) | Soybean plant response rating (soybean [10]; 500 g ai/ha) | Soybean plant response rating (soybean [10]; Test C, 125 g ai/ha) | Wheat plant response rating (wheat [11]; 500 g ai/ha) | Wheat plant response rating (wheat [11]; Test C, 125 g ai/ha) | Plant response rating, Blackgrass (blackgrass [13]; Postemergence, 125 g ai/ha) | Plant response rating, Corn (corn [14]; Postemergence, 125 g ai/ha) | Plant response rating, Oat, Wild (oat, wild [17]; 500 g ai/ha, postemergence) | Plant response rating, Oat, Wild (oat, wild [17]; Postemergence, 125 g ai/ha) | Plant response rating, Pigweed, Palmer (pigweed, palmer [18]; Postemergence, 125 g ai/ha) | Plant response rating, Ragweed (ragweed [19]; 500 g ai/ha, postemergence) | Plant response rating, Ryegrass, Italian (ryegrass, Italian [20]; 500 g ai/ha, postemergence) | Plant response rating, Ryegrass, Italian (ryegrass, Italian [20]; Postemergence, 125 g ai/ha) | Plant response rating, Wheat (wheat [22]; Postemergence, 125 g ai/ha) | Plant response rating, Horseweed (horseweed; 500 g ai/ha, postemergence) | Plant response rating, Barnyardgrass (Flood) (barnyardgrass [23]) | Plant response rating, Ducksalad (Flood) (ducksalad) | Plant response rating, Rice (Flood) (rice) | Plant response rating, Sedge, Umbrella (Flood) (sedge, umbrella)
40: Ryegrass, Italian plant response rating (ryegrass, Italian [9]; 500 g ai/ha)
50: Foxtail, Green plant response rating (green foxtail [4]; 500 g ai/ha) | Plant response rating, Foxtail, Green (green foxtail [15]; 500 g ai/ha, postemergence) | Plant response rating, Galium (galium; 500 g ai/ha, postemergence)
